The text below walks through data of patent publication US20200289598A1, “SOYBEAN SEED EXTRACT, METHOD FOR PRODUCING THE SAME AND USES THEREOF” (CHARSIRE BIOTECHNOLOGY CORP., priority 2016, published 2020).

SMILES strings stand for the structures. “And” between values parts separate entries of the source, which are not always exact repeats. Equal values may be shown once. Read-outs that look alike come from different tables or passages of the source.

Series [1] deals with wounds of STZ-induced diabetic rats. Kind of series: Wound closure test in STZ-induced diabetic rats. In kind it is in vivo, rat. The settings on record: mean ± SEM. From the text: Approximately 8 weeks old, with body weight rages of 250 g to 300 g SD male rats were obtained from National Laboratory Animal Center, Taiwan. After 7 days of quarantine, the rats were moved until the body weight over 350 g. The rats were identified by ear notch of the animals. Each cage tag was labeled with the cage number, study number, sex and group name. The rats were housed 2 per cage in polycarbonate cage in the AAALAC accredited animal facility. […] Laboratory Rodent Diet 5001 (PMI® Nutrition International, Inc., MO, USA) were supplied ad libitum throughout the study period. Tap water was supplied ad libitum via bottles attached to the cages. Samples (test articles) were prepared according to Table 4. [table] CGS-21680: Specific adenosine A2A subtype receptor agonist, prepared by adding 1.67 mg of CGS-21680 in 248.4 g of cream base. Diabetic rats: The rats with body weight over 300 g were administrated with one dose of Streptozotocin (STZ, 65 mg/kg) by intravenous injection. The STZ-induced rats with high blood sugar (over 300 mg/dL) for 2 months were selected to conduct the wound closure test. Trauma surgeries for diabetic rats: The diabetic rats with weight lower than 300 g were eliminated and the rest were randomized into 6 groups. The rats were then anesthetized with pentobarbital and hairs on surgical area (dorsal area) were removed. […] Medication and wound closure measurement: The animals were weighed and the area of wounds was measured every other day for evaluation of wound closure. Medications were applied to each wound twice a day and the wounds were covered with cheesecloth. The hoods were worn on the necks of the rats to prevent the wounds from receiving animal scratches. […] When taking pictures, a standard ruler was placed beside the wounds. Before analyzing the wounds with Image pro (Media cybernetics), length was standardized with the standard ruler in the picture to avoid the errors caused by different picturing distances. Data analysis and statistics: Three wound areas on the rats' backs were analyzed by Image pro. The original wound areas were the areas of day zero. The original wound areas minus the wound areas at different time points and then divided by the original wound areas to get the wound closure percentages. The mean of three wound closure percentages of each rat represents the wound closure of each rat. The data was shown as mean±standard error (SEM). The p-values of the testing results were calculated by t-test in statistics software (SYSTAT, Systat software inc). P<0.05 means there is a significant difference, and it is marked with *. P<0.01 means there is a very significant difference, and it is marked with **. P<0.001 means there is an extremely significant difference, and it is marked with ***.

Series [2] is classed as in vivo, nude mice. The procedure: Animal facility: Approximately 6 to 8 week-old BALB/cAnN.Cg-Foxn1^nu/CrlNarl female mice were obtained from National Laboratory Animal Center, Taiwan. The environment conditions were: temperature: 25±1° C.; humidity: 60±5%; independent air condition; controlled light cycle. Water and food was supplied ad libitum throughout the study period. The mice were housed according to the standard procedure of the laboratory animal committee.
Tumor-bearing mice induction: MDA-MB-231 cells (human breast cancer cells) were cultured until 5×10^6 cells, the cells required in injection of female nude mice were collected with trypsin, and resuspended in PBS solution for tumor induction. The tumor of nude mice was induced by subcutaneous injected with 100 μL of cell solution and released back into the cages to be a normal diet. When the tumor was about 300 mm^3, the mice were subjected to topical administration of different doses of the extract composition and grouping into CTX group and non-CTX group. The weight, appetite, blood sugar and tumor size growth were observed every week to assess the appearance of the normal physiological state of nude mice to understand the efficacy of the extract composition.
Grouping the tumor-bearing mice and treatment: When the tumor was about 300 mm^3, the mice were subjected to grouping as shown in Table 12. The chemotherapy drug (an injection a week) was administrated with the extract composition. The treating group was topically applied to the tumor area, skin around the tumor, and the whole back skin with the dosage of 0.1 g/day. After treatment for 5 weeks, the weight, appetite, blood sugar and tumor size growth of the nude mice were observed.
Clinical assessment of tumor-bearing mice: The physiological state and tumor size of the tumor-bearing mice were assessed including weight, appetite, blood sugar and tumor size. The tumor size was calculated according to: tumor volume (mm^3)=ab^2/2, to assess the tumor growth rate.

Series [3] deals with MDA-MB-231 (human breast cancer cells) tumor. Kind of series: Tumor growth in MDA-MB-231 tumor-bearing nude mice. The format is in vivo. The settings on record: CTX one injection a week, test article topical 0.1 g/day. From the text:
Cell line and reagent: MDA-MB-231 (purchased from Food Industry Research and Development Institute, Taiwan); […] Animal facility: Approximately 6 to 8 week-old BALB/cAnN.Cg-Foxn1^nu/CrlNarl female mice were obtained from National Laboratory Animal Center, Taiwan. […] Water and food was supplied ad libitum throughout the study period. The mice were housed according to the standard procedure of the laboratory animal committee. Tumor-bearing mice induction: […] The weight, appetite, blood sugar and tumor size growth were observed every week to assess the appearance of the normal physiological state of nude mice to understand the efficacy of the extract composition. Grouping the tumor-bearing mice and treatment: […] The chemotherapy drug (an injection a week) was administrated with the extract composition. […] [table] Clinical assessment of tumor-bearing mice: The physiological state and tumor size of the tumor-bearing mice were assessed including weight, appetite, blood sugar and tumor size.

Regarding `CCNC(=O)[C@H]1O[C@@H](n2cnc3c(N)nc(NCCc4ccc(CCC(=O)O)cc4)nc32)[C@H](O)[C@@H]1O` [CGS-21680], the wound closure percentage was 21.87±5.61% and 21.87 ± 5.61 *** % in series [1] (Experimental 1, day 4, topical twice a day, CGS-21680 10 μg/wound); 25.45 ± 4.46 *** % in series [1] (Experimental 1, day 6, topical twice a day, CGS-21680 10 μg/wound); 45.88 ± 4.28 *** % in series [1] (Experimental 1, day 8, topical twice a day, CGS-21680 10 μg/wound); 93.80 ± 2.79 *** % in series [1] (Experimental 1, day 10, topical twice a day, CGS-21680 10 μg/wound); 91.15 ± 2.72 ** % in series [1] (Experimental 1, day 12, topical twice a day, CGS-21680 10 μg/wound); 98.74 ± 0.60 ** % in series [1] (Experimental 1, day 14, topical twice a day, CGS-21680 10 μg/wound). In addition, the wound closure percentage is 40.02 ± 5.03 ** % in series [1] (Experimental 2, day 4, topical twice a day, CGS-21680 6.7 μg/wound); 63.09 ± 2.58 *** % in series [1] (Experimental 2, day 6, topical twice a day, CGS-21680 6.7 μg/wound); 77.21 ± 2.44 *** % in series [1] (Experimental 2, day 8, topical twice a day, CGS-21680 6.7 μg/wound); 80.93 ± 2.08 *** % in series [1] (Experimental 2, day 10, topical twice a day, CGS-21680 6.7 μg/wound); 96.91 ± 1.08 *** % in series [1] (Experimental 2, day 12, topical twice a day, CGS-21680 6.7 μg/wound); 99.17 ± 0.54 *** % in series [1] (Experimental 2, day 14, topical twice a day, CGS-21680 6.7 μg/wound).

Take `O=P1(N(CCCl)CCCl)NCCCO1` (centres unmarked) [CTX, cyclophosphamide]: the average body weight is 19.64 g in series [2] (4/28); 20.04 g in series [2] (5/2); 18.46 g in series [2] (5/5); 19.00 g in series [2] (5/9); 19.51 g in series [2] (5/12); 20.99 g in series [2] (5/16). The average body weight in series [2] (5/19) is 20.42 g; in series [2] (5/23), 21.16 g; in series [2] (5/26) it was 20.21 g; in series [2] (5/30) it was 22.18 g. Moreover, the average blood sugar is listed as 113 dL in series [2] (5/2); 93 dL in series [2] (5/9); 109 dL in series [2] (5/16); 122 dL in series [2] (5/23); 108 dL in series [2] (5/30). Also, the average food intake in series [2] (5/5~5/9) worked out at 4.89 g; in series [2] (5/9~5/12) it was 5.61 g; in series [2] (5/12~5/16), 5.38 g; in series [2] (5/16~5/19), 5.21 g; in series [2] (5/19~5/23) it was 4.70 g; in series [2] (5/23~5/26) it was 4.76 g. The compound also had an average food intake in series [2] (5/26~5/30) of 5.22 g. Further, the tumor size elimination in series [3] (4/28) is 0.00 mm^3; in series [3] (5/2), 99.61 mm^3; in series [3] (5/5), 78.95 mm^3; in series [3] (5/9), −19.52 mm^3; in series [3] (5/12), −45.11 mm^3; in series [3] (5/16) it was −157.57 mm^3. Also, the tumor size elimination in series [3] (5/19) was −176.41 mm^3; in series [3] (5/23), −264.85 mm^3; in series [3] (5/26), −293.68 mm^3; in series [3] (5/30), −391.42 mm^3.
